Test results reported in BindingDB's records for doi:10.1021/bi00098a028 (Arizona State University, 1991).

Molecular target: T1, Purine nucleoside phosphorylase (Homo sapiens, UniProt P00491)
T1 sequence (P00491 whole entry): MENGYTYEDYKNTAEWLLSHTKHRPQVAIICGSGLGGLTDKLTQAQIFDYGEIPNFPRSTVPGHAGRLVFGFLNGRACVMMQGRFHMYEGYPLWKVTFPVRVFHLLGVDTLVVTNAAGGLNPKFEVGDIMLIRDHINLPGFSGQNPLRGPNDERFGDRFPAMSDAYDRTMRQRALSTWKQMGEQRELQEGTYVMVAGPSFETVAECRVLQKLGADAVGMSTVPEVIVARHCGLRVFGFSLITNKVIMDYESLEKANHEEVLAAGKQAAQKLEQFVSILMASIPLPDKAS
Assay: Competitive Inhibition Assay
Excerpt: PNPase activity (guanosine to guanine and ribose 1-phosphate) was followed by measuring the decrease in absorbance at 268nm.

Ki [µM] | SMILES
337 | Nc1cccc2nc[nH]c(=O)c12 [Substituted Quinazolin-4(3H)-one, 9]
142 | O=c1[nH]cnc2c(O)ccc(O)c12 [Substituted Quinazolin-4(3H)-one, 11]
618 | Cc1cc(O)c2nc[nH]c(=O)c2c1 [Substituted Quinazolin-4(3H)-one, 12]
576 | O=c1[nH]cnc2cccc(O)c12 [Substituted Quinazolin-4(3H)-one, 13]
593 | O=c1[nH]cnc2c(O)cccc12 [Substituted Quinazolin-4(3H)-one, 14]
131 | Nc1ccc(O)c2c(=O)[nH]cnc12 [Substituted Quinazolin-4(3H)-one, 15]
